Measured values taken from patent US11382848B2, “Compounds reducing malodour perception and the use thereof” (CHEMCOM S.A., priority 2017, dated 2022).

Experiments:
[1] = target: T1, human olfactory receptor OR7D4 (Homo sapiens, UniProt Q8NG98); experiment: OR7D4 luciferase gene reporter assay (antagonism of agonist-induced activation); format: cell-based
T1 construct: transfected with a plasmid containing CRE-luciferase and a plasmid containing OR7D4; expressed in transfected cells; host or cells: HEK293T stably expressing olfactory chaperone proteins of the RTP family
T1 sequence (Q8NG98 1-312): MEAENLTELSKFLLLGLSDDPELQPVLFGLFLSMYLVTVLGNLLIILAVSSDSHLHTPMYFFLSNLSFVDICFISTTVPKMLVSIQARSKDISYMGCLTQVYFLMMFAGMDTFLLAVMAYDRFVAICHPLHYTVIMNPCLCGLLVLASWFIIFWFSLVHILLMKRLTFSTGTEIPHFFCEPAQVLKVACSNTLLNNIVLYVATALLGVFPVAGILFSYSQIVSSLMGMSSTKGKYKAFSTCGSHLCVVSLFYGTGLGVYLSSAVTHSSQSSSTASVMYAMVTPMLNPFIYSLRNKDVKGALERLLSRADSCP
Method: Cells were maintained in minimal essential medium (EMEM, Lonza) containing 10% fetal bovine serum (M10). HEK293T stably expressing olfactory chaperone proteins from the RTP family as described in WO 2006/002161 (introduced here as a reference) were generated by transfecting HEK293T cells with expression vector containing the chaperone gene sequences and a resistance gene to puromycin, using Lipofectamine 2000. A recombinant cell population was selected by adding 10 μg/ml of puromycin into the culture medium. Monoclonal populations were further obtained by limit dilution procedure. Briefly, a cell suspension was diluted to contain 1 cell per ml and this dilution was dispatched in poly-D-lysine-coated 96 well plates (200 μl of dilution per well). After 5 days of culture, the presence and number of cell colonies per well was checked under a phase contrast microscope. After 5 additional days of culture, wells containing a single colony were harvested and each collected population was amplified independently.
The 5-alpha-androst-16-ene-3-one, used as an agonist of the human olfactory receptor OR7D4 and the tested molecules were diluted at a concentration of 1 mole/litre (M) into dimethyl sulfoxide (DMSO) to generate stock solutions.
For concentration-response analysis, serial dilutions of the tested molecules were prepared from stock solutions in EMEM plated into 96-well plates.
(§1) Briefly, cells were plated on poly-D-lysine-coated 96-well plates (BD Bioscience, Erembodegem-Dorp, Belgium) and transfected with a plasmid containing CRE-luciferase and a plasmid containing OR7D4. Sixteen hours after transfection, the culture medium was replaced by serum-free EMEM containing the tested ligands at a determined concentration. After four hours of incubation at 37° C. degree, cells were lysed and processed for luminescence measurement according to the manufacturer's protocols. Luminescence emission was recorded on a Spectra Max M5 reader (Molecular Devices, Sunnyvale, Calif.). Results were expressed as percentage of the response induced by 10 μM of the adenylate cyclase activator Forskolin.
The ability of the compounds of the invention to inhibit the activity of androstenone on OR7D4 receptor was assessed by the luciferase assay described above.
To determine whether a molecule antagonizes OR7D4, this compound was introduced in the incubation medium of the Luciferase assay described above at a concentration of either 316 μM, 100 μM or 31.6 μM, along with the known activator of the receptor 5α-androst-16-en-3-one at a concentration of 31.6 μM. Molecules were considered as “hits” i.e., as having an antagonist effect on the receptor, if they induced a decrease of at least 50% of the luciferase production elicited upon activation of OR7D4 by 5α-androst-16-en-3-one.
Putative antagonist molecule libraries containing compound 1 and other types of molecules were used to identify antagonist of the receptor OR7D4. The screening campaign was performed on the OR7D4 with a series of 112 putative antagonist molecules. In this screening campaign, compound 1 was identified as a hit.
The compound 1 was further confirmed as antagonist of OR7D4 by performing dose-response analysis using the luciferase assay. Different concentrations of compound 1, ranging from 31.6 nM to 1 mM were tested on HEK293 cell expressing OR7D4 and stimulated with 31.6 μM of 5α-androst-16-en-3-one.
The antagonistic property of compound 1 on OR7D4 was further confirmed by measuring the response of the OR7D4 to 5α-androsta-4,16-dien-3-one in presence of compound 1, using the luciferase assay as describe hereinabove. The observed inhibition was in the same range as the one observed when stimulating the receptor with 5α-androst-16-en-3-one.
To further explore the antagonism on OR7D4, a series of compounds structurally related to compound 1 were synthesized and assessed as antagonists of OR7D4 by dose-response analysis using the luciferase assay. […]

[2] = system: forskolin-induced, receptor-independent production of cAMP / Luciferase; experiment: Forskolin control in cells not expressing the receptor (luciferase assay); format: cell-based; conditions: cells that did not express the receptor, stimulated by forskolin
Method: as §1

[3] = system: perception of androstenone; experiment: Alternative sensory test with Tedlar bags and expert panel
Method: The test consists, in a first step, in microinjecting androstenone (at 0.6% in ethanol), compound 1 (pure) or androstenone+compound 1 in 10 L Tedlar™ bags specially conceived for gas sampling, previously loaded with a known volume of pure air (from oil free compressor with additional charcoal filters). Than the compound of interest (EtOH solution) is injected with a high accuracy micro-syringe through a septum placed on the tap-valve.
The odour presentation device consists of a cylinder to be filled with clean air. The bag is inserted in the cylinder and connected to a sampling installation in the cylinder by means of a valve. By controlled injection of clean air into the cylinder, the interior pressure is raised and the sampling air is pressed in a controlled manner out of the sample container through the opened valve. This sampling air is transferred to the nose of the corresponding sensory odour panel member by means of a funnel. By this means, each sensory odour panel member receives an identical sample with a standardized volume flow and a constant provision time. The outlet flow rate is between 10-20 L/min (in order to avoid any mixing with ambient air before reaching the nose).
The expert panel is entering the room 15 minutes before starting the test. The basic standard test is a rating in intensity and the use of the closest chemical descriptors according to the following order of presentation:
Each assessor can smell for few seconds. A pause of min. 1 minute is considered between presentations.
The individual rating is done with a resolution of 0.5 on a scale ranging from 0 (no odour) to 5 (saturating odour).

- Luciferase activity elicited by 5α-androst-16-en-3-one, dose-response (FIG. 1) ([1]; 31.6 nM to 1 mM compound, HEK293 cell expressing OR7D4 stimulated with 31.6 μM 5α-androst-16-en-3-one): decrease of Luciferase activity
- hit in antagonist screening (decrease of at least 50% of the luciferase production) ([1]; compound at 316 μM, 100 μM or 31.6 μM with 5α-androst-16-en-3-one at 31.6 μM, 112 putative antagonist molecules screened): hit
- IC50 ([1]; dose-response, luciferase assay, half decrease of the luciferase production obtained without antagonist, androstenone at 31.6 micromolar): 2 µM
- IC50 ([1]; response of OR7D4 to 5α-androsta-4,16-dien-3-one in presence of compound): 2.5 µM
Structure (SMILES): CCCCCCC(=C\c1ccccc1)/C=C(\C)C(=O)OCC [Compound 1, ethyl (E)-4-((E)-benzylidene)-2-methyldec-2-enoate]
- forskolin-induced production of Luciferase [2]: not affected
- typical odour of sweat of Androstenone when smelled in the presence of the compound ([3]; Androstenone + compound 1): completely disappears
- intrinsic smell ([3]; compound 1 alone): mushroom
- odour intensity ([3]; compound 1 alone compared with androstenone alone): lower than the one of androstenone alone
